Legend:
Assay in all cases: Antimicrobial screening by agar dilution
Format in all cases: cell-based
Conditions in all cases: after 10, 20, 40 and 60 minutes at all dilutions 1:100, 1:200, 1:400, 1:800
Candida albicans = system: Candida albicans
Method: (§1) The antibacterial properties of the synthesized compound 9-(2-hydroxypyridin-3-yl)-10-(2-hydroxyethyl)-3,3,6,6-tetramethyl-3,4,6,7,9,10-hexahydroacridine1,8(2H,5H)-dione were studied by the method of agar dilution. Test solutions of each compound was prepared in concentration of 1% using dimethylformamide as a solvent then they are diluted in physiological solution to obtain the final experimental dilutions 1:100, 1:200, 1:400, 1:800. The effect of these substances are compared with furacillin in a controllable study. The testing microbes used were gram positive bacteria Staphylococcus aureus, gram negative bacteria Pseudomonas aeruginosa and Escherichia coli and Candida albicans fungus. The experiments used for this survey were meat-pentonlu agar (EPA) for cultivation of bacteria and Saburo environment for the fungus. Each experiment used 1 mL of test solution on each plate […]. Two drops of emulsified with microbes feel were added. All experimental samples were taken from the agar after 10, 20, 40, 60 minutes in the environment on the basis of Patrk planted. The bacteria were cultivated at a temperature of 37° C. for 1 day and the mushroom was kept in a thermostat for […] at a temperature of 28° C. Then results were checked.

Staphylococcus aureus = system: Staphylococcus aureus
Method: as §1

Pseudomonas aeruginosa = system: Pseudomonas aeruginosa
Method: as §1

Escherichia coli = system: Escherichia coli
Method: as §1

Measured: inhibition activity

CC1(C)CC(=O)C2=C(C1)N(CCO)C1=C(C(=O)CC(C)(C)C1)C2c1cccnc1O [9-(2-hydroxypyridin-3-yl)-10-(2-hydroxyethyl)-3,3,6,6-tetramethyl-3,4,6,7,9,10-hexahydroacridine1,8(2H,5H)-dione]
highest inhibition activity: all assays above
